Test results as given in BindingDB's records for patent US20230312550 (Astrazeneca, 2023).

Molecular target: T1, Prolyl endopeptidase FAP (Homo sapiens, UniProt Q12884)
T1 sequence (Q12884 whole entry): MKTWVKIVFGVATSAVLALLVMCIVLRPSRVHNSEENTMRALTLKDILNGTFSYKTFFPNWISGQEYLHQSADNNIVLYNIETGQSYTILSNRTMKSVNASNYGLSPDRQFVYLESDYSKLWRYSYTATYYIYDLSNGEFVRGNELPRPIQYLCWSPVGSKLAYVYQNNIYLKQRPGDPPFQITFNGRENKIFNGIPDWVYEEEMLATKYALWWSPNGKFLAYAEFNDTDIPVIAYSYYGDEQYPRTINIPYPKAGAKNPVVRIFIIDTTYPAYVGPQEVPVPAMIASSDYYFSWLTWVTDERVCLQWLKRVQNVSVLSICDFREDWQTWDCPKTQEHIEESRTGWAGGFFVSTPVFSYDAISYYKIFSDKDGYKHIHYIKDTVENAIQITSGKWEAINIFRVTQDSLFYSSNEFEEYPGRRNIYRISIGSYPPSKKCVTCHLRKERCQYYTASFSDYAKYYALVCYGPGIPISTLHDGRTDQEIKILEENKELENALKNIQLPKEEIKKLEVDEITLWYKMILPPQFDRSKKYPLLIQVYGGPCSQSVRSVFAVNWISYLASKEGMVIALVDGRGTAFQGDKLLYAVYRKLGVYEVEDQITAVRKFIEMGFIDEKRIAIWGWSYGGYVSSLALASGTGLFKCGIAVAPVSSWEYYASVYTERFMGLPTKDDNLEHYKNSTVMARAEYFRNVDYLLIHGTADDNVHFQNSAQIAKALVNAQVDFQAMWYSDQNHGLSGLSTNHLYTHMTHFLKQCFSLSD
Assay: hFAP Binding Assay
Conditions: for kon: read-out: kon (M-1-s-1)
Protocol: Table 1: Compounds were tested in a direct binding assay using 8K surface plasmon resonance biosensor (GE Healthcare) at 20° C. Immobilization of hFAP (M39-A757) on a CMD200M sensor chip (Xantec) was performed using standard amine coupling procedure in immobilization buffer (10 mM HEPES, 150 mM NaCl, 0.05% Tween20, pH 7.4). The surface was washed with 10 mM NaOH, 1M NaCl before being activated with EDC/NHS (GE Healthcare), followed by immobilization of hFAP (in 10 mM Acetate pH 5.0). Finally, the surface was deactivated by ethanolamine. Immobilization levels of hFAP were around 4000-6000 RU. The reference spot was treated as described, omitting the injection of hFAP. Compound concentration series were injected over the immobilized protein in increasing concentrations (2-500 nM) using single cycle kinetics in running buffer (20 mM TRIS, 150 mM NaCl, 0.05% Tween20, 1% DMSO, pH 7.4).

SMILES	koff [s⁻¹]	kon [M⁻¹ s⁻¹]
N#C[C@@H]1CSCN1C(=O)CNC(=O)c1ccnc2ccc(N3CC4(CCCC4(F)F)C3)cc12 [US20230312550, Example 141]	7.8e-05	1.4e+06
N#C[C@@H]1CSCN1C(=O)CNC(=O)c1ccnc2ccc(N3CC(CCC(F)(F)F)C3)cc12 [US20230312550, Example 142]	5.5e-05	1.8e+06
N#C[C@@H]1CSCN1C(=O)CNC(=O)c1ccnc2ccc(N3CC(F)(C(F)(F)F)C3)cc12 [US20230312550, Example 143]	5.7e-05	1.6e+06
N#C[C@@H]1CSCN1C(=O)CNC(=O)c1ccnc2ccc(N3CC(CC(F)F)C3)cc12 [US20230312550, Example 144]	0.00051	9.1e+06
N#C[C@@H]1CSCN1C(=O)CNC(=O)c1ccnc2ccc(N3CC(C4CC4)C3)cc12 [US20230312550, Example 145]	0.00013	4.5e+06
N#C[C@@H]1CSCN1C(=O)CNC(=O)c1ccnc2ccc(N3CC(CCF)C3)cc12 [US20230312550, Example 146]	0.00017	1.4e+06
CC(F)(F)C1CN(c2ccc3nccc(C(=O)NCC(=O)N4CSC[C@H]4C#N)c3c2)C1 [US20230312550, Example 147]	0.00012	2.8e+06
CC(C)C1CN(c2ccc3nccc(C(=O)NCC(=O)N4CSC[C@H]4C#N)c3c2)C1 [US20230312550, Example 148]	0.0002	6.6e+06
CC1CC2(C1)CN(c1ccc3nccc(C(=O)NCC(=O)N4CSC[C@H]4C#N)c3c1)C2 [US20230312550, Example 149]	3.9e-05	4.8e+06
N#C[C@@H]1CSCN1C(=O)CNC(=O)c1ccnc2ccc(N3CC4(CC(C(F)(F)F)C4)C3)cc12 [US20230312550, Example 150]	4.3e-05	280000
CCC1(O)CN(c2ccc3nccc(C(=O)NCC(=O)N4CSC[C@H]4C#N)c3c2)C1 [US20230312550, Example 154]	5.4e-05	910000
N#C[C@@H]1CSCN1C(=O)CNC(=O)c1ccnc2ccc(N3CC4(CC(F)C4)C3)cc12 [US20230312550, Example 155]	5e-05	3.1e+06
N#C[C@@H]1CSCN1C(=O)CNC(=O)c1ccnc2ccc(N3CC(F)(CF)C3)cc12 [US20230312550, Example 157]	0.00012	1.9e+06
N#C[C@@H]1CSCN1C(=O)CNC(=O)c1ccnc2ccc(N3CC(CC(F)(F)F)C3)cc12 [US20230312550, Example 158]	0.00029	3.1e+06
C[C@H]1N(c2ccc3nccc(C(=O)NCC(=O)N4CSC[C@H]4C#N)c3c2)CC1(F)F [US20230312550, Example 159]	9.2e-05	2.1e+06
N#C[C@@H]1CSCN1C(=O)CNC(=O)c1ccnc2ccc(N3CC4C(C3)C4(F)F)cc12 (some centres not stated) [US20230312550, Example 160]	7.4e-05	1.1e+06
CO[C@@H]1CCN(c2ccc3nccc(C(=O)NCC(=O)N4CSC[C@H]4C#N)c3c2)C1 [US20230312550, Example 161]	0.00028	1.4e+07
N#C[C@@H]1CSCN1C(=O)CNC(=O)c1ccnc2ccc(N3CCC4(CCOCC4)CC3)cc12 [US20230312550, Example 162]	2.8e-05	1.9e+06
N#C[C@@H]1CSCN1C(=O)CNC(=O)c1ccnc2ccc(N3CC4(CC4)C3)cc12 [US20230312550, Example 164]	3.6e-05	1.4e+06
CC1(O)CN(c2ccc3nccc(C(=O)NCC(=O)N4CSC[C@H]4C#N)c3c2)C1 [US20230312550, Example 165]	6.3e-05	1.2e+06
N#C[C@@H]1CSCN1C(=O)CNC(=O)c1ccnc2ccc(N3CC4(COC4)C3)cc12 [US20230312550, Example 166]	4.9e-05	2.2e+06

SMILES	koff [s⁻¹]	kon [M⁻¹ s⁻¹]
C[C@]1(O)CCN(c2ccc3nccc(C(=O)NCC(=O)N4CSC[C@H]4C#N)c3c2)C1 [US20230312550, Example 168]	4.8e-05	1.6e+06
N#C[C@@H]1CSCN1C(=O)CNC(=O)c1ccnc2ccc(-c3ccc(C(F)F)nc3)cc12 [US20230312550, Example 169]	0.00096	6.2e+06
Cn1nccc1-c1ccc2nccc(C(=O)NCC(=O)N3CSC[C@H]3C#N)c2c1 [US20230312550, Example 174]	0.00024	1.9e+06
N#C[C@@H]1CSCN1C(=O)CNC(=O)c1ccnc2ccc(-c3ccnn3[C@H]3CCCCO3)cc12 [US20230312550, Example 176]	0.00022	120000
Cc1ccc(-c2ccc3nccc(C(=O)NCC(=O)N4CSC[C@H]4C#N)c3c2)cn1 [US20230312550, Example 177]	5.8e-05	100000
COc1ccc(-c2ccc3nccc(C(=O)NCC(=O)N4CSC[C@H]4C#N)c3c2)cn1 [US20230312550, Example 178]	0.00017	3.1e+06
N#C[C@@H]1CSCN1C(=O)CNC(=O)c1ccnc2cc(Cl)c(N3CCOCC3)cc12 [US20230312550, Example 179]	0.00016	3.2e+06
N#C[C@@H]1CSCN1C(=O)CNC(=O)c1ccnc2c(Cl)cc(N3CCOCC3)cc12 [US20230312550, Example 180]	0.00095	560000
N#C[C@@H]1CSCN1C(=O)CNC(=O)c1ccnc2ccc(N3CC(F)(c4ccccc4)C3)cc12 [US20230312550, Example 182]	4.2e-05	250000
CC(=O)N1CC2(C1)CN(c1ccc3nccc(C(=O)NCC(=O)N4CSC[C@H]4C#N)c3c1)C2 [US20230312550, Example 184]	1.4e-05	950000
N#C[C@@H]1CSCN1C(=O)CNC(=O)c1ccnc2ccc(N3CC(Cc4ccc(Cl)cc4)C3)cc12 [US20230312550, Example 187]	0.00022	3.1e+06
CC1(CS(C)(=O)=O)CN(c2ccc3nccc(C(=O)NCC(=O)N4CSC[C@H]4C#N)c3c2)C1 [US20230312550, Example 188]	2.2e-05	2.6e+06
CCC1(O)CCN(c2ccc3nccc(C(=O)NCC(=O)N4CSC[C@H]4C#N)c3c2)CC1 [US20230312550, Example 189]	5.1e-05	2.6e+06
CC1(O)CCN(c2ccc3nccc(C(=O)NCC(=O)N4CSC[C@H]4C#N)c3c2)CC1 [US20230312550, Example 190]	3.6e-05	1.8e+06
CCC1(OC)CCN(c2ccc3nccc(C(=O)NCC(=O)N4CSC[C@H]4C#N)c3c2)CC1 [US20230312550, Example 191]	3.3e-05	1.5e+06
CC(C)C1(O)CCN(c2ccc3nccc(C(=O)NCC(=O)N4CSC[C@H]4C#N)c3c2)CC1 [US20230312550, Example 192]	1.4e-05	1.3e+06
C[C@@H]1CN(c2ccc3nccc(C(=O)NCC(=O)N4CSC[C@H]4C#N)c3c2)C[C@H](C)[C@]1(C)O [US20230312550, Example 193]	0.00012	740000
N#C[C@@H]1CSCN1C(=O)CNC(=O)c1ccnc2ccc(N3C[C@H]4CCC[C@@H](C3)O4)cc12 [US20230312550, Example 194]	6.8e-05	1.1e+06
CN1CCC(F)(c2ccc3nccc(C(=O)NCC(=O)N4CSC[C@H]4C#N)c3c2)CC1 [US20230312550, Example 195]	6.1e-05	190000
CC(C)n1nccc1-c1ccc2nccc(C(=O)NCC(=O)N3CSC[C@H]3C#N)c2c1 [US20230312550, Example 197]	6.6e-05	88000
